Counter-ions that a name gives are not always drawn. Like-named read-outs stand apart in the source and are kept apart here.

Holding throughout (type): cell-based
The test system of assay [1] is A375 (Amelanotic Melanoma). Description: Cell viability analysis (WST-1), A375. As to conditions: Homo sapiens, WST-1, OD450 nm, lower viability = better inhibition, read-out: survival rate (viability) of cancer cells, A375. In general terms: Tetrazolium assays rely on reduction of a dye to a coloured formazan, in cell work by metabolically active cells.
For assay [2], the system named is HCT116 (Colorectal Carcinoma). The experiment in a line: Cell viability analysis (WST-1), HCT116. As to conditions: Homo sapiens, HCT-116, 72 h, Table 3, drug 10 μM, WST-1, OD450 nm, read-out: survival rate (viability) of cancer cells, HCT116 (WT).
Assay [3] deals with HepG2 (Hepatocellular Carcinoma). Description: Cell viability analysis (WST-1), HepG2. The note with it: Homo sapiens, WST-1, OD450 nm, read-out: survival rate (viability) of cancer cells, HepG2.
For assay [4], the system named is HeLa (Cervix Adenocarcinoma). The experiment in a line: Cell viability analysis (WST-1), HeLa. The note with it: Homo sapiens, HeLa, WST-1, OD450 nm, read-out: survival rate (viability) of cancer cells, HeLa.
For assay [5], the system named is AGS (Gastric Adenocarcinoma). Description: Cell viability analysis (WST-1), AGS. As to conditions: WST-1, OD450 nm, read-out: survival rate (viability) of cancer cells, AGS.
Assay [6] concerns H1650 (Lung Adenocarcinoma). The experiment in a line: Cell viability analysis (WST-1), H1650. The note with it: Homo sapiens, WST-1, OD450 nm, read-out: survival rate (viability) of cancer cells, H1650.
The test system of assay [7] is MKN-45 (Gastric Adenocarcinoma). Description: Cell viability analysis (WST-1), MKN-45. The note with it: Homo sapiens, WST-1, OD450 nm, read-out: survival rate (viability) of cancer cells, MKN-45.
The subject of assay [8] is TSGH-8301 (Urinary Bladder Carcinoma). The experiment in a line: Cell viability analysis (WST-1), TSGH-8301. The note with it: WST-1, OD450 nm, read-out: survival rate (viability) of cancer cells, TSGH.
Assay [9] deals with A549 (Lung Adenocarcinoma). Description: Cell viability analysis (WST-1), A549. As to conditions: Homo sapiens, WST-1, OD450 nm, read-out: survival rate (viability) of cancer cells, A549.
Assay [10] relates to MCF7 (Mammary Gland, Adenocarcinoma). Description: Cell viability analysis (WST-1), MCF7. As to conditions: Homo sapiens, WST-1, OD450 nm, read-out: survival rate (viability) of cancer cells, MCF7.
The subject of assay [11] is PC3 (Prostate Adenocarcinoma). Description: Cell viability analysis (WST-1), PC3. The note with it: WST-1, OD450 nm, read-out: survival rate (viability) of cancer cells, PC3.
The subject of assay [12] is LoVo (Colorectal Adenocarcinoma). Description: Cell viability analysis (WST-1), LoVo. The note with it: Homo sapiens, LoVo, WST-1, OD450 nm, read-out: survival rate (viability) of cancer cells, LoVo.
In assay [13] the test system is HL-60 (Acute Promyelocytic Leukemia). Description: Cell viability analysis (WST-1), HL-60. As to conditions: Homo sapiens, HL-60; Table 3; drug 10 μM, 72 hours, WST-1, OD450 nm; read-out: survival rate (viability) of cancer cells, HL-60.
The subject of a further assay is cancer cell lines. Description: Growth inhibitory effects on the panel of cancer cell lines. The note with it: drug 10 μM, 72 hours; for Numbers of inhibitory effect on cancer cell line: count of cancer cell lines inhibited; for inhibition effect on different cancer cell lines (in words): WST-1.
[14] abbreviates: A-375, 72 h, Table 3, drug 10 μM.
Setting [15] is: HepG2, 72 h, Table 3, drug 10 μM.
[16] abbreviates: NCI-H1650, 72 h, Table 3, drug 10 μM.
The mark [17] stands for this setting: MKN-45, 72 h, Table 3, drug 10 μM.
The mark [18] stands for this setting: A549, 72 h, Table 3, drug 10 μM.
[19] abbreviates: MCF7, 72 h, Table 3, drug 10 μM.

On to `CC(C)NC[C@H](O)COc1ccc(CCOCC2CC2)cc1` [Levobetaxolol HCl], for which the viability at 10 µM is 76.9% in assay [1] (setting [14]); 70.3% in [2]; 99.2% in assay [3] (setting [15]); 88.7% in assay [4] (72 h, Table 3, drug 10 μM); 62.5% in assay [5] (72 h, Table 3, drug 10 μM); 69.9% in [6] (setting [16]). For the same molecule, the viability at 10 µM was determined as 119% in [7] (setting [17]); 98.2% in assay [8] (72 h, Table 3, drug 10 μM); 75.9% in assay [9] (setting [18]); 85% in assay [10] (setting [19]); 77.3% in assay [11] (72 h, Table 3, drug 10 μM); 80% in [12] (72 h, Table 3, drug 10 μM). Besides, the viability at 10 µM in assay [13] was found to be 107%. Also, the “Numbers of inhibitory effect on cancer cell line” value (“Numbers of inhibitory effect” for short) with cancer cell lines is recorded as 0. In addition, the “inhibition effect on different cancer cell lines (in words)” value in the assay on cancer cell lines is “significant inhibition effect”.
On to `CCOC(=O)[C@H](CCc1ccccc1)N[C@@H](C)C(=O)N1[C@H](C(=O)O)C[C@@H]2CCC[C@@H]21` [Ramipril (Altace), Ramipril], for which the viability at 10 µM in assay [1] (setting [14]) amounted to 120%; in [2] it was 108%; in [3] (setting [15]), 106%; in [4] (72 h, Table 3, drug 10 μM) it was 84.3%; in assay [5] (72 h, Table 3, drug 10 μM) it was 99.8%; in assay [6] (setting [16]) it was 135%. In addition, the viability at 10 µM in [7] (setting [17]) amounted to 84%; in [8] (72 h, Table 3, drug 10 μM), 114%; in [9] (setting [18]), 99.6%; in assay [10] (setting [19]) it was 82.4%; in assay [11] (72 h, Table 3, drug 10 μM), 104%; in [12] (72 h, Table 3, drug 10 μM), 81.9%. In addition, in [13], the viability at 10 µM was 107%. In addition, in the assay on cancer cell lines, the “Numbers of inhibitory effect” value is reported as 0. In addition, the “inhibition effect on different cancer cell lines (in words)” value in the assay with cancer cell lines is reported as “significant inhibition effect”.
`CCOC(=O)[C@H](CCc1ccccc1)N[C@H]1CCc2ccccc2N(CC(=O)O)C1=O` [Benazepril hydrochloride]: the viability at 10 µM in assay [1] (setting [14]) stood at 104%; in assay [2] it was 60%; in [3] (setting [15]), 93%; in assay [4] (72 h, Table 3, drug 10 μM) it was 75.9%; in assay [5] (72 h, Table 3, drug 10 μM), 76.7%; in assay [6] (setting [16]), 61.6%. The viability at 10 µM in assay [7] (setting [17]) stood at 103%; in assay [8] (72 h, Table 3, drug 10 μM), 77.5%; in assay [9] (setting [18]) it was 81.8%; in assay [10] (setting [19]), 126%; in [11] (72 h, Table 3, drug 10 μM), 80.7%; in assay [12] (72 h, Table 3, drug 10 μM), 96%. Further, in assay [13], the viability at 10 µM worked out at 93.6%. In addition, the “Numbers of inhibitory effect” value with cancer cell lines is on record as 0. For the same molecule, the “inhibition effect on different cancer cell lines (in words)” value in the assay with cancer cell lines is “significant inhibition effect”.
Turning to `O=C(O)c1nn(Cc2ccc(Cl)cc2Cl)c2ccccc12` [Lonidamine], the viability at 10 µM in [1] (setting [14]) was 65.8%; in [2] it was 81.2%; in assay [3] (setting [15]), 114%; in assay [4] (72 h, Table 3, drug 10 μM), 61.6%; in assay [5] (72 h, Table 3, drug 10 μM), 69.9%; in [6] (setting [16]) it was 65.9%. In addition, the viability at 10 µM amounted to 93.3% in [7] (setting [17]); 86.4% in assay [8] (72 h, Table 3, drug 10 μM); 109% in assay [9] (setting [18]); 86.9% in [10] (setting [19]); 102% in assay [11] (72 h, Table 3, drug 10 μM); 96.1% in assay [12] (72 h, Table 3, drug 10 μM). In [13], the viability at 10 µM came out at 115%. In addition, the “Numbers of inhibitory effect” value in the assay on cancer cell lines was 0. In addition, the “inhibition effect on different cancer cell lines (in words)” value with cancer cell lines is “significant inhibition effect”.
On to `Cc1cccc(Cc2c[nH]cn2)c1C` [Detomidine HCl], for which the viability at 10 µM in [1] (setting [14]) was determined as 84.8%; in assay [2], 133%; in [3] (setting [15]), 102%; in assay [4] (72 h, Table 3, drug 10 μM) it was 88.8%; in [5] (72 h, Table 3, drug 10 μM), 68.5%; in assay [6] (setting [16]), 90.6%. Moreover, the viability at 10 µM is 91% in [7] (setting [17]); 74.2% in [8] (72 h, Table 3, drug 10 μM); 81.1% in assay [9] (setting [18]); 106% in assay [10] (setting [19]); 89.2% in assay [11] (72 h, Table 3, drug 10 μM); 91% in assay [12] (72 h, Table 3, drug 10 μM). In assay [13], the viability at 10 µM stood at 105%. In the assay on cancer cell lines, the “Numbers of inhibitory effect” value came out at 0. Moreover, the “inhibition effect on different cancer cell lines (in words)” value in the assay on cancer cell lines is reported as “significant inhibition effect”.
Regarding `O=C(O)c1cc(=O)c2ccccc2o1` [Chromocarb], the viability at 10 µM is 63.4% in assay [1] (setting [14]); 72.8% in [2]; 95.6% in [3] (setting [15]); 67.6% in assay [4] (72 h, Table 3, drug 10 μM); 81.8% in assay [5] (72 h, Table 3, drug 10 μM); 78.8% in assay [6] (setting [16]). For the same molecule, the viability at 10 µM in assay [7] (setting [17]) stood at 100%; in assay [8] (72 h, Table 3, drug 10 μM), 97.2%; in assay [9] (setting [18]), 61.1%; in assay [10] (setting [19]) it was 100%; in assay [11] (72 h, Table 3, drug 10 μM), 88.3%; in [12] (72 h, Table 3, drug 10 μM), 72.5%. Moreover, the viability at 10 µM in assay [13] came to 110%. For the same molecule, in the assay with cancer cell lines, the “Numbers of inhibitory effect” value is given as 0. Also, the “inhibition effect on different cancer cell lines (in words)” value in the assay with cancer cell lines is on record as “significant inhibition effect”.
Regarding `CCCSc1nc(N[C@@H]2C[C@H]2c2ccc(F)c(F)c2)c2nnn([C@@H]3C[C@H](OCCO)[C@@H](O)[C@H]3O)c2n1` [Ticagrelor], the viability at 10 µM in [1] (setting [14]) amounted to 60.1%; in [2], 73.6%; in assay [3] (setting [15]) it was 94.5%; in assay [4] (72 h, Table 3, drug 10 μM), 126%; in assay [5] (72 h, Table 3, drug 10 μM), 100%; in [6] (setting [16]), 76%. In addition, the viability at 10 µM in [7] (setting [17]) was 114%; in assay [8] (72 h, Table 3, drug 10 μM), 86%; in [9] (setting [18]), 85%; in [10] (setting [19]), 83.1%; in assay [11] (72 h, Table 3, drug 10 μM), 84.1%; in [12] (72 h, Table 3, drug 10 μM) it was 79.6%. Also, the viability at 10 µM in assay [13] worked out at 93.7%. The “Numbers of inhibitory effect” value with cancer cell lines is reported as 0. The “inhibition effect on different cancer cell lines (in words)” value in the assay on cancer cell lines is listed as “significant inhibition effect”.
Regarding `Cc1cccc(C)c1N=C1NCCCS1` [Xylazine HCl], the viability at 10 µM stood at 63.5% in [1] (A-375, Table 3, drug 10 μM, 72 hours); 83.5% in [3] (HepG2, Table 3, drug 10 μM, 72 hours); 65.1% in assay [4] (Table 3, drug 10 μM, 72 hours); 86.3% in assay [5] (Table 3, drug 10 μM, 72 hours); 67.2% in [6] (NCI-H1650, Table 3, drug 10 μM, 72 hours); 88.7% in assay [7] (MKN-45, Table 3, drug 10 μM, 72 hours). Also, the viability at 10 µM was determined as 61.5% in [8] (Table 3, drug 10 μM, 72 hours); 71.7% in [9] (A549, Table 3, drug 10 μM, 72 hours); 104% in assay [10] (MCF7, Table 3, drug 10 μM, 72 hours); 105% in [11] (Table 3, drug 10 μM, 72 hours); 96.6% in [12] (Table 3, drug 10 μM, 72 hours); 116% in assay [13]. Besides, the “Numbers of inhibitory effect” value with cancer cell lines turned out to be 0. For the same molecule, the “inhibition effect on different cancer cell lines (in words)” value in the assay with cancer cell lines was “significant inhibition effect”.

Broadly, the viability is a read-out of living cells in per cent, often relative to untreated cells.

Values taken from patent US20170304388A1, “NEW INDICATION OF CARDIOVASCULAR DRUGS FOR PREPARATION OF CANCER INHIBITION PHARMACEUTICAL COMPOSITION” (LAUNX BIOMEDICAL CO., LTD., priority 2014, published 2017).
